{"source": "patent US11160871B2", "about": "“SSTR-targeted conjugates and particles and formulations thereof” (TARVEDA THERAPEUTICS, INC., priority 2015, dated 2021)", "key": {"[1]": {"system": "NCI-H69 SCLC tumors", "assay": "NCI-H69 SCLC xenografts, PH3 and CC3 after a single dose", "format": "in vivo, mice", "procedure": "Conjugate 57 was assessed in an in vivo study with NCI-H69 SCLC xenografts model. A single 2 mg/kg dose of Conjugate 57 was administered to mice bearing NCI-H69 SCLC tumors. Levels of cell cycle arrest marker phosphohistone H3 (PH3) were measured at the periphery, middle and core of the tumors. Phosphorylated histone H3 is correlated chromosome condensation during both mitosis and meiosis. […] The biological effects from Conjugate 57 were seen deep in the tumor and distant from blood vessels. Cell death peaks at around 3 days after dosing. […] Conjugates of the present invention can rapidly and deeply penetrate tumor and can exert a prolonged effect on tumor biology."}, "[2]": {"assay": "Plasma protein binding", "format": "in vitro ADME", "conditions": "for fraction unbound at 1 uM: read-out: Free fraction at 1 uM (%); for fraction unbound at 10 uM: read-out: Free fraction at 10 uM (%)", "description": "Plasma protein binding is not concentration dependent and is consistent across species."}, "[3]": {"system": "H69 tumors", "assay": "PD studies with H69 model, PH3 and CC3 by Western blot and IHC", "format": "in vivo", "procedure": "PD studies were carried out with H69 model to determine the in vivo response of conjugate effects on tumor cells and timing/peak response. Conjugate 57 and Conjugate 57 in nanoparticles (Conjugate 57/NP20) were tested at 2 mg/kg. NP20 formulation has been described in EXAMPLE 2. Western blot and IHC staining were carried out to measure PH3 and CC3 levels.\nPH3 is correlated chromosome condensation during both mitosis and meiosis. […] As shown in Western Blot results in FIG. 18A, the peak response for PH3 occurs at 48 hours for both the conjugate and the conjugate in the nanoparticle. […] PH3 level was steady for Conjugate 57/NP20 samples.\nCC3 is a marker of apoptosis. It is the executioner of apoptosis and tightly regulated. A peak in activity is seen for both Conjugate 57 and Conjugate 57/NP20 at 72 hours (FIG. 19). The activity of Conjugate 57 is stronger as compared to Conjugate 57/NP20, consistent with the PH3 results.\nCell arrest as indicated by PH3 levels peaked at 48 hr and apoptosis as indicated by CC3 levels peaked at 72 hr."}, "[4]": {"assay": "Allometric scaling of clearance", "parameters": "species or system human", "conditions": "from mouse, rat and dog"}, "[5]": {"system": "NCI-H524 human small cell lung cancer cells", "assay": "cells", "format": "cell-based", "conditions": "NCI-H524 proliferation", "procedure": "Conjugates of the present invention were assessed in an in vitro assay evaluating inhibition of cell proliferation. NCI-H524 (ATCC) human small cell lung cancer cells were plated in 96 well, V-bottomed plates (Costar) at a concentration of 5,000 cells/well. 24 hours later, cells were treated with either conjugate for 2 hours and further incubated 70 hours, or for octreotide competition experiments, treated with 100 μM octreotide for 30 min, and then treated with conjugate for 2 hours, and further incubated for 70 hours. Conjugate starting dose was 20 μM and three fold serial dilutions were done for a total of ten points. After 2 hours of treatment, cells were spun down, the drug containing media was removed, and fresh complete medium was added and used to resuspend the cells, which were spun again. After removal of the wash media, the cells were resuspended in complete medium, and then transferred into white walled, flat bottomed 96 well plates. […] Proliferation was measured using CellTiter Glo reagent using the standard protocol (Promega) and a Glomax multi+ detection system (Promega). Percent proliferation inhibition was calculated using the following formula: % inhibition=(control−treatment)/control*100. Control is defined as vehicle alone. IC50 curves were generated using the nonlinear regression analysis (four parameter) with GraphPad Prism 6."}, "[6]": {"system": "HCC-33 (small cell lung cancer) xenograft", "assay": "HCC-33 xenograft, multiple dose regimens (Example 17)", "format": "in vivo", "procedure": "HCC-33 (small cell lung cancer) xenograft was chosen to study efficacy of Conjugate 57. In some groups, Conjugate 57 was given at 1.0 mg/kg, 0.5 mg/kg or 0.33 mg/kg every week for 30 days, a total of four doses for each animal. In some other groups, Conjugate 57 was also given at 0.5 mg/kg or 0.25 mg/kg twice a week for 30 days, a total of 8 total doses for each animal."}, "[7]": {"system": "MCF-7 breast cancer cells", "assay": "MCF-7 cell proliferation", "format": "cell-based", "procedure": "In an in vitro study, Conjugate 57 is given to MCF-7 breast cancer cells. Cell proliferation of the MCF-7 cells are measured."}, "[8]": {"system": "NCI-H524 cells", "assay": "PH3 assay of cell-cycle arrest", "format": "cell-based, human", "description": "Results of a PH3 assay measuring effect on cell-cycle arrest that looks at phospho histone H3 (PH3) increases were shown in FIG. 2B."}, "[9]": {"system": "IMR-32 cells", "assay": "In vitro competitive assay in IMR-32 cells", "format": "cell-based", "conditions": "absence of octreotide", "procedure": "First, an in vitro competitive assay was conducted where IMR-32 cells were treated with Conjugate 57 in the absence or presence of an excess of octreotide. […] Pre-incubation with octreotide affected the inhibition."}, "[10]": {"conditions": "0.25 mg/kg 2x/wk, 8 total doses"}, "[11]": {"conditions": "0.33 mg/kg every week, four doses"}, "[12]": {"conditions": "0.5 mg/kg every week, four doses"}, "[13]": {"conditions": "1.0 mg/kg every week, four doses"}}, "note": "Read-outs that look alike come from different tables or passages of the source."}
{"compound": "COc1cc2cc(c1Cl)N(C)C(=O)C[C@H](OC(=O)[C@H](C)N(C)C(=O)CCSSC[C@H](NC(=O)[C@@H]1CSSC[C@H](NC(=O)[C@H](N)Cc3ccccc3)C(=O)N[C@@H](Cc3ccc(O)cc3)C(=O)N[C@H](Cc3c[nH]c4ccccc34)C(=O)N[C@@H](CCCCN)C(=O)N[C@@H]([C@@H](C)O)C(=O)N1)C(N)=O)[C@]1(C)O[C@H]1[C@H](C)[C@@H]1C[C@@](O)(NC(=O)O1)[C@H](OC)/C=C/C=C(\\C)C2", "note": "[Conjugate 57]", "values": [{"measurement": "PH3 levels at periphery, middle and core of the tumors", "setting": "[1]; single 2 mg/kg dose", "value": "Elevated levels of PH3 are seen at all depths of the tumor through 72 h"}, {"measurement": "time of peak cell death (cleaved caspase-3)", "setting": "[1]; single dose of 2 mg/kg", "value": "around 3 days"}, {"measurement": "fraction unbound at 1 uM", "setting": "[2]; Dog plasma", "value": 0.044}, {"measurement": "fraction unbound at 10 uM", "setting": "[2]; Dog plasma", "value": 0.033}, {"measurement": "fraction unbound at 1 uM", "setting": "[2]; Human plasma", "value": 0.078}, {"measurement": "fraction unbound at 10 uM", "setting": "[2]; Human plasma", "value": 0.078}, {"measurement": "fraction unbound at 1 uM", "setting": "[2]; Mouse plasma", "value": 0.082}, {"measurement": "fraction unbound at 10 uM", "setting": "[2]; Mouse plasma", "value": 0.094}, {"measurement": "fraction unbound at 1 uM", "setting": "[2]; Rat plasma", "value": 0.063}, {"measurement": "fraction unbound at 10 uM", "setting": "[2]; Rat plasma", "value": 0.074}, {"measurement": "time of PH3 signal peak, IHC", "setting": "[3]; 2 mg/kg", "value": 48, "unit": "h"}, {"measurement": "time of peak in CC3 activity", "setting": "[3]; 2 mg/kg", "value": 72, "unit": "h"}, {"measurement": "time of peak response for PH3, Western Blot", "setting": "[3]; 2 mg/kg", "value": 48, "unit": "h"}, {"measurement": "time of peak of apoptosis as indicated by CC3 levels (fold change, FIG. 21)", "setting": "[3]; H69", "value": 72, "unit": "h"}, {"measurement": "time of peak of cell arrest as indicated by PH3 levels (fold change, FIG. 21)", "setting": "[3]; H69", "value": 48, "unit": "h"}, {"measurement": "clearance in human predicted by allometric scaling", "setting": "[4]", "value": "low clearance"}, {"measurement": "difference in IC50 with or without octreotide competition", "setting": "[5]", "value": 12.2, "unit": "fold"}, {"measurement": "TGI % Day 4", "setting": "[6]; [10]", "value": "−12.5", "unit": "%"}, {"measurement": "TGI % Day 8", "setting": "[6]; [10]", "value": 50.4, "unit": "%"}, {"measurement": "TGI % Day 11", "setting": "[6]; [10]", "value": 67.3, "unit": "%"}, {"measurement": "TGI % Day 15", "setting": "[6]; [10]", "value": 85.8, "unit": "%"}, {"measurement": "TGI % Day 18", "setting": "[6]; [10]", "value": 92.3, "unit": "%"}, {"measurement": "TGI % Day 22", "setting": "[6]; [10]", "value": 95.8, "unit": "%"}, {"measurement": "TGI % Day 25", "setting": "[6]; [10]", "value": 97.2, "unit": "%"}, {"measurement": "TGI % Day 29", "setting": "[6]; [10]", "value": 97.8, "unit": "%"}, {"measurement": "TGI % Day 4", "setting": "[6]; [11]", "value": 2.1, "unit": "%"}, {"measurement": "TGI % Day 8", "setting": "[6]; [11]", "value": 34.2, "unit": "%"}, {"measurement": "TGI % Day 11", "setting": "[6]; [11]", "value": 48, "unit": "%"}, {"measurement": "TGI % Day 15", "setting": "[6]; [11]", "value": 62.4, "unit": "%"}, {"measurement": "TGI % Day 18", "setting": "[6]; [11]", "value": 73.8, "unit": "%"}, {"measurement": "TGI % Day 22", "setting": "[6]; [11]", "value": 79, "unit": "%"}, {"measurement": "TGI % Day 25", "setting": "[6]; [11]", "value": 83.4, "unit": "%"}, {"measurement": "TGI % Day 29", "setting": "[6]; [11]", "value": 78.5, "unit": "%"}, {"measurement": "TGI % Day 4", "setting": "[6]; 0.5 mg/kg 2x/wk, 8 total doses", "value": 0.5, "unit": "%"}, {"measurement": "TGI % Day 8", "setting": "[6]; 0.5 mg/kg 2x/wk, 8 total doses", "value": 61.6, "unit": "%"}, {"measurement": "TGI % Day 11", "setting": "[6]; 0.5 mg/kg 2x/wk, 8 total doses", "value": 78.3, "unit": "%"}, {"measurement": "TGI % Day 15", "setting": "[6]; 0.5 mg/kg 2x/wk, 8 total doses", "value": 91.8, "unit": "%"}, {"measurement": "TGI % Day 18", "setting": "[6]; 0.5 mg/kg 2x/wk, 8 total doses", "value": 96.2, "unit": "%"}, {"measurement": "TGI % Day 22", "setting": "[6]; 0.5 mg/kg 2x/wk, 8 total doses", "value": 97.6, "unit": "%"}, {"measurement": "TGI % Day 25", "setting": "[6]; 0.5 mg/kg 2x/wk, 8 total doses", "value": 99.1, "unit": "%"}, {"measurement": "TGI % Day 29", "setting": "[6]; 0.5 mg/kg 2x/wk, 8 total doses", "value": 99.2, "unit": "%"}, {"measurement": "TGI % Day 4", "setting": "[6]; [12]", "value": 1.6, "unit": "%"}, {"measurement": "TGI % Day 8", "setting": "[6]; [12]", "value": 60.3, "unit": "%"}, {"measurement": "TGI % Day 11", "setting": "[6]; [12]", "value": 68.8, "unit": "%"}, {"measurement": "TGI % Day 15", "setting": "[6]; [12]", "value": 82.7, "unit": "%"}, {"measurement": "TGI % Day 18", "setting": "[6]; [12]", "value": 87.1, "unit": "%"}, {"measurement": "TGI % Day 22", "setting": "[6]; [12]", "value": 91.1, "unit": "%"}, {"measurement": "TGI % Day 25", "setting": "[6]; [12]", "value": 93.6, "unit": "%"}, {"measurement": "TGI % Day 29", "setting": "[6]; [12]", "value": 89.5, "unit": "%"}, {"measurement": "TGI % Day 4", "setting": "[6]; [13]", "value": 25.8, "unit": "%"}, {"measurement": "TGI % Day 8", "setting": "[6]; [13]", "value": 69.9, "unit": "%"}, {"measurement": "TGI % Day 11", "setting": "[6]; [13]", "value": 84.4, "unit": "%"}, {"measurement": "TGI % Day 15", "setting": "[6]; [13]", "value": 93.6, "unit": "%"}, {"measurement": "TGI % Day 18", "setting": "[6]; [13]", "value": 97.4, "unit": "%"}, {"measurement": "TGI % Day 22", "setting": "[6]; [13]", "value": 99.2, "unit": "%"}, {"measurement": "TGI % Day 25", "setting": "[6]; [13]", "value": 99.8, "unit": "%"}, {"measurement": "TGI % Day 29", "setting": "[6]; [13]", "value": 99.7, "unit": "%"}, {"measurement": "tolerability of multiple doses", "setting": "[6]; all regimens", "value": "well tolerated"}, {"measurement": "proliferation of MCF-7 cells", "setting": "[7]", "value": "reduces the proliferation of MCF-7 cells"}, {"measurement": "shift in PH3 assay on competition with octreotide", "setting": "[8]", "value": 2.6, "unit": "fold"}, {"measurement": "growth of IMR-32 cells", "setting": "[9]", "value": "inhibited the growth of IMR-32 cells"}]}
